Data as given in patent US5710245A, “Alpha-helix mimetics and methods relating thereto” (Molecumetics, Ltd., priority 1995, dated 1998).

Assay: Circular dichroism (alpha-helicity) of peptide in water
Format: physicochemical
Conditions: ratio of mean residue ellipticity at 222 nm to 208 nm, 75 μM in water
Text: Alpha-helicity of a peptide is typically determined by measuring its circular dichroism (CD), and CD data is normally presented as mean residue ellipticies [.THETA.]m. Alpha-helical peptides show two negative Cotton effects at 208 nm and 222 nm, and a positive Cotton effect at 193 nm, while the CD spectra of peptides with random coil secondary structure are dominated by the increasing negative Cotton effect at shorter wavelength. Alpha-helicity may be estimated from the value at 222 nm, and by comparing the negative Cotton effects at 222nm and 208nm. Increasing fraction of [.THETA.]m (222 nm) divided by [.THETA.]m(208 nm) correlates with increasing alpha-helicity. High values for [.THETA.]m(208 nm) compared to [.THETA.]m (222 nm) and a shifting minimum from 208 nm to shorter wavelengths indicate random coil conformation.
An NPY analog having the structure Ac-RAAANLITRQRY--NH2 was synthesized according to standard solid phase peptide synthetic techniques. The NPY analog was then dissolved in water at a concentration of 75 μM, and its CD measured using a JASCO J500 CD spectrometer at a temperature of both 3° C. and 25° C. Structure VI was synthesized according to Example 3, and its CD was similarly measured at both 3° C. and 25° C. (at a concentration of 75 μM).

Circular Dichroism 222/208 3° C. (3° C.): 0.38
Circular Dichroism 222/208 25° C. (25° C.): 0.41
Substance: Ac-RAAANLITRQRY-NH2 [NPY Analog, Ac-RAAANLITRQRY--NH2]
